Patent publication US20260083687A1, “COMPOUNDS FOR REDUCING LACTATION AND IMPROVING HEALTH” (AHV International B.V., priority 2022, published 2026)
Several values for one entry are separate records, joined by “and”; a condition that tells them apart may be missing. Equal values may be shown once. Read-outs that look alike come from different tables or passages of the source.

Key:
[1] = system: cows (Holstein Friesians); test: Treatment with DPD analogs (organosulfur compounds) and milk yield (Example 8); format: in vivo, cow; conditions: for % reduction after 24 h average (milk yield): 24 h after one oral gel capsule; for % reduction after 24 h average (milk yield) / % reduction after 48 h average (milk yield) / % reduction after 72 h average (milk yield) / % reduction after 96 h average (milk yield) / average reduction after 24, 48 and 72 h (%) (milk yield) / Average reduction after 24 and 48 h (%) (milk yield): dose equimolar to 80 ml di-n-propyl disulfide; for % reduction after 24 h average (milk yield) / % reduction after 48 h average (milk yield) / % reduction after 72 h average (milk yield) / % reduction after 96 h average (milk yield): negative value = increase in yield; for % reduction after 48 h average (milk yield): 48 h after one oral gel capsule; for % reduction after 72 h average (milk yield): 72 h after one oral gel capsule; for % reduction after 96 h average (milk yield): 96 h after one oral gel capsule; for average reduction after 24, 48 and 72 h (%) (milk yield): average of 24, 48 and 72 h after one oral gel capsule; for Average reduction after 24 and 48 h (%) (milk yield): average of 24 and 48 h after one oral gel capsule; for Milk yield (kg) Last milking: before administration, single oral gel capsule dose per cow (ml unless g): diethyl disulfide 63, di-n-propyl disulfide 80, diisopropyl disulfide 160, di-n-butyl disulfide 100, dibenzyl disulfide 102, diethyl sulfide 55, di-n-propyl sulfide 72, diisopropyl sulfide 74, di-n-butyl sulfide 90, dibenzyl sulfide 96 g, diphenyl sulfide 85, di-n-propyl trisulfide 98, di-n-propyl sulfone 6; for Milk yield (kg) Last milking / Average reduction after 24 and 48 h (%) / Milk yield (kg) After 24 h / Milk yield (kg) After 48 h / Milk yield (kg) After 72 h / Milk yield (kg) After 96 h / average reduction after 24, 48 and 72 h (%) / % reduction after 24 h / % reduction after 48 h / % reduction after 72 h / % reduction after 96 h: individual cows; for Average reduction after 24 and 48 h (%) / Milk yield (kg) After 24 h / Milk yield (kg) After 48 h / Milk yield (kg) After 72 h / Milk yield (kg) After 96 h / average reduction after 24, 48 and 72 h (%) / % reduction after 24 h / % reduction after 48 h / % reduction after 72 h / % reduction after 96 h: dose per compound as listed in E284; for % reduction after 24 h / % reduction after 48 h / % reduction after 72 h / % reduction after 96 h: vs milk yield before treatment
Protocol: Study design. 36 cows (Holstein Friesians) from 2 farms were used. The feed of the cows was composed of TMR, including corn and grass silage, supplemented with soya and minerals. […] The cows were milked in a milk robot. […] The cows were milked twice a day. The cows were housed in free stables. […] Placebo treatment corresponded to administration of two gel capsules containing 180 ml water.
For this study dosages synthetic compounds (>96% purity) as indicated in table 17 were administered to cows. The objective of this study was to compare the activity of a corresponding dose of the compounds expressed in mol, based on the number of moles that is present in 80 ml di-n-propyl disulfide at 20° C. The number of moles was converted to ml or grams of the tested compounds. For this purpose, the molecular weight and specific density were used in the calculations. The compounds were formulated in the gel capsules as indicated in the previous examples.
Before the various dosages were administered, the milk yields were monitored for at least 5 days.

[2] = system: cows (Holstein Friesians)
Protocol: Study design. Twelve cows (Holstein Friesians) from 1 farm were used. The start of the dry period of every cow was between 40 to 60 days before calving. The cows were milked twice a day at fixed times and the cows were selected on a milk production of >12.5 litres/day 24 hours before PTS administering took place. […] No extra measures were taken to stimulate dry-off, such as changes in feed ration or changes in milking frequency. The cows were milked twice a day. The cows were housed in free stables. A porcine gelatine capsule with PTS or placebo gel capsule with water were administered 7 to 14 days before the start of the dry-off period.
For this study various dosages synthetic PTS (>98% purity) were administered to cows with a milk yield of at least 12.5 kg milk per day. The following dosages were applied: 0, 10, 20, 40 ml of pure PTS. For each dosage 2 cows were used.
Before the various dosages were administered the milk yield was monitored for 14 days. The gel capsules were orally administered by a bolus shooter, the gel capsule for the placebo group contained tap water. Administering of a capsule took place between the morning and afternoon milking. On t=14 days the PTS-containing capsules and the placebo capsules were administered and the milk yield was monitored 48 hours more.

[O-][S+](Cc1ccccc1)SCc1ccccc1 (stereo not shown) [Dibenzyl thiosulfinate, di-benzyl thiosulfinate]
% reduction after 24 h average (milk yield) [1]: 38% | % reduction after 48 h average (milk yield) [1]: 37% | % reduction after 72 h average (milk yield) [1]: 27.5% | % reduction after 96 h average (milk yield) [1]: 5% | average reduction after 24, 48 and 72 h (%) (milk yield) [1]: 34.2% | Average reduction after 24 and 48 h (%) (milk yield) [1]: 37.5% | Milk yield (kg) Last milking [1]: 30.3 kg and 27.9 kg | Average reduction after 24 and 48 h (%) [1]: 32.5% and 42.5% | Milk yield (kg) After 24 h [1]: 20.4 kg and 15.6 kg | Milk yield (kg) After 48 h [1]: 20.7 kg and 15.9 kg | Milk yield (kg) After 72 h [1]: 24.3 kg and 17.9 kg | Milk yield (kg) After 96 h [1]: 28.1 kg and 27.3 kg | average reduction after 24, 48 and 72 h (%) [1]: 28.5% and 39.7% | % reduction after 24 h [1]: 33% and 43% | % reduction after 48 h [1]: 32% and 42% | % reduction after 72 h [1]: 20% and 35% | % reduction after 96 h [1]: 7% and 3%

CC(C)SSC(C)C [Diisopropyl disulfide, di-isopropyl disulfide]
Milk yield (kg) After 24 h [1]: 13.6 kg | Milk yield (kg) After 48 h [1]: 15.4 kg | Milk yield (kg) After 72 h [1]: 18.5 kg | Milk yield (kg) After 96 h [1]: 19.5 kg

CCCS[S+]([O-])CCC (stereo not shown) [PTS, di-n-propyl thiosulfinate]
% reduction after 24 h average (milk yield) [1]: 45% | % reduction after 48 h average (milk yield) [1]: 44% | % reduction after 72 h average (milk yield) [1]: 23% | % reduction after 96 h average (milk yield) [1]: 10% | average reduction after 24, 48 and 72 h (%) (milk yield) [1]: 37% | Average reduction after 24 and 48 h (%) (milk yield) [1]: 45% | Milk yield (kg) Last milking [1]: 28.6 kg and 32.7 kg | Average reduction after 24 and 48 h (%) [1]: 49% and 40% | Milk yield (kg) After 24 h [1]: 14.5 kg and 19.4 kg | Milk yield (kg) After 48 h [1]: 14.9 kg and 20 kg | Milk yield (kg) After 72 h [1]: 23.4 kg and 23.9 kg | Milk yield (kg) After 96 h [1]: 27.2 kg and 27.8 kg | average reduction after 24, 48 and 72 h (%) [1]: 39% and 35.7% | % reduction after 24 h [1]: 49% and 40% | % reduction after 48 h [1]: 48% and 39% | % reduction after 72 h [1]: 18% and 27% | % reduction after 96 h [1]: 5% and 15% | effect on milk yield compared to the milk yield before treatment ([2]; 20 ml PTS): clear lowering on milk yield | effect on milk yield/day ([2]; 40 and 60 ml PTS): visible | Milk yield ([2]; 40 ml PTS given after last milking on day 0, day 0, individual cows): 32.4 kg and 28.4 kg | Milk yield ([2]; 40 ml PTS given on day 0, day 1, individual cows): 22.4 kg and 21.9 kg | Milk yield ([2]; 40 ml PTS given on day 0, day 2, individual cows): 24.4 kg and 23.4 kg | Milk yield ([2]; 40 ml PTS given on day 0, day 3, individual cows): 28.9 kg and 26.4 kg | Milk yield ([2]; 40 ml PTS given on day 0, day 4, individual cows): 32.2 kg and 27.1 kg | Milk yield ([2]; 40 ml PTS given on day 0, day 5, individual cows): 31.2 kg and 28.2 kg | Milk yield ([2]; 40 ml PTS given on day 0, day 6, individual cows): 32.0 kg and 28.3 kg | Milk yield ([2]; 40 ml PTS given on day 0, day −1, individual cows): 31.9 kg and 27.7 kg | Milk yield ([2]; 40 ml PTS given on day 0, day −2, individual cows): 32.2 kg and 28.9 kg | Milk yield ([2]; 40 ml PTS given on day 0, day −3, individual cows): 33.3 kg and 28.1 kg | Milk yield ([2]; 40 ml PTS given on day 0, day −4, individual cows): 31.9 kg and 28.5 kg | Milk yield ([2]; 40 ml PTS given on day 0, day −5, individual cows): 31.4 kg and 27.9 kg | Milk yield ([2]; 40 ml PTS given on day 0, day −6, individual cows): 33.2 kg and 28.3 kg | Average milking/day of last 7 days before administration ([2]; 40 ml PTS, individual cows): 32.3 kg and 28.3 kg | % reduction after 24 h ([2]; 40 ml PTS, individual cows): 31% and 23% | % reduction after 48 h ([2]; 40 ml PTS, individual cows): 24% and 17% | % reduction after 72 h ([2]; 40 ml PTS, individual cows): 11% and 7% | Average reduction 24 and 48 h (%) ([2]; 40 ml PTS, individual cows): 28% and 20% | Milk yield After 24 h ([2]; 40 ml PTS, individual cows): 22.4 kg and 21.9 kg | Milk yield After 48 h ([2]; 40 ml PTS, individual cows): 24.4 kg and 23.4 kg | Milk yield After 72 h ([2]; 40 ml PTS, individual cows): 28.9 kg and 26.4 kg | Milk yield After 96 h ([2]; 40 ml PTS, individual cows): 32.2 kg and 27.1 kg | Milk yield After 120 h ([2]; 40 ml PTS, individual cows): 31.2 kg and 28.2 kg | Milk yield ([2]; 60 ml PTS given after last milking on day 0, day 0, individual cows): 32.4 kg and 29.3 kg | Milk yield ([2]; 60 ml PTS given on day 0, day 1, individual cows): 19.4 kg and 14.5 kg | Milk yield ([2]; 60 ml PTS given on day 0, day 2, individual cows): 20.0 kg and 14.9 kg | Milk yield ([2]; 60 ml PTS given on day 0, day 3, individual cows): 23.9 kg and 23.4 kg | Milk yield ([2]; 60 ml PTS given on day 0, day 4, individual cows): 27.8 kg and 27.2 kg | Milk yield ([2]; 60 ml PTS given on day 0, day 5, individual cows): 31.6 kg and 28.3 kg | Milk yield ([2]; 60 ml PTS given on day 0, day 6, individual cows): 32.2 kg and 27.4 kg | Milk yield ([2]; 60 ml PTS given on day 0, day −1, individual cows): 32.2 kg and 28.1 kg | Milk yield ([2]; 60 ml PTS given on day 0, day −2, individual cows): 33.2 kg and 28.3 kg | Milk yield ([2]; 60 ml PTS given on day 0, day −3, individual cows): 31.9 kg and 27.4 kg | Milk yield ([2]; 60 ml PTS given on day 0, day −4, individual cows): 33.5 kg and 29.6 kg | Milk yield ([2]; 60 ml PTS given on day 0, day −5, individual cows): 32.4 kg and 28.3 kg | Milk yield ([2]; 60 ml PTS given on day 0, day −6, individual cows): 33.4 kg and 28.9 kg | Average milking/day of last 7 days before administration ([2]; 60 ml PTS, individual cows): 28.6 kg and 32.7 kg | % reduction after 24 h ([2]; 60 ml PTS, individual cows): 51% and 40% | % reduction after 48 h ([2]; 60 ml PTS, individual cows): 48% and 39% | % reduction after 72 h ([2]; 60 ml PTS, individual cows): 18% and 27% | % reduction after 96 h ([2]; 60 ml PTS, individual cows): 5% and 15% | Average reduction 24 and 48 h (%) ([2]; 60 ml PTS, individual cows): 50% and 40% | Milk yield After 24 h ([2]; 60 ml PTS, individual cows): 14.5 kg and 19.4 kg | Milk yield After 48 h ([2]; 60 ml PTS, individual cows): 14.9 kg and 20 kg | Milk yield After 72 h ([2]; 60 ml PTS, individual cows): 23.4 kg and 23.9 kg | Milk yield After 96 h ([2]; 60 ml PTS, individual cows): 27.2 kg and 27.8 kg | Milk yield After 120 h ([2]; 60 ml PTS, individual cows): 28.3 kg and 31.6 kg | time to recovery of milk yield after administration ([2]; PTS): 3 to 4 days | damage to the udder ([2]; bovine, in vivo): does not reduce milk yield because of damaging the udder

di-isopropyl thiosulfonate [Diisopropyl thiosulfonate]
% reduction after 24 h average (milk yield) [1]: 28% | % reduction after 48 h average (milk yield) [1]: 26% | % reduction after 72 h average (milk yield) [1]: 9% | % reduction after 96 h average (milk yield) [1]: 0% | average reduction after 24, 48 and 72 h (%) (milk yield) [1]: 21% | Average reduction after 24 and 48 h (%) (milk yield) [1]: 27% | Milk yield (kg) Last milking [1]: 28.9 kg | Average reduction after 24 and 48 h (%) [1]: 27% | Milk yield (kg) After 24 h [1]: 20.8 kg | Milk yield (kg) After 48 h [1]: 21.4 kg | Milk yield (kg) After 72 h [1]: 26.3 kg | Milk yield (kg) After 96 h [1]: 28.8 kg | average reduction after 24, 48 and 72 h (%) [1]: 21% | % reduction after 24 h [1]: 28% | % reduction after 48 h [1]: 26% | % reduction after 72 h [1]: 9% | % reduction after 96 h [1]: 0%

O=S(=O)(Cc1ccccc1)SCc1ccccc1 [Dibenzyl thiosulfonate, di-benzyl thiosulfonate]
% reduction after 24 h average (milk yield) [1]: 48% | % reduction after 48 h average (milk yield) [1]: 48% | % reduction after 72 h average (milk yield) [1]: 28% | % reduction after 96 h average (milk yield) [1]: 15% | average reduction after 24, 48 and 72 h (%) (milk yield) [1]: 41.3% | Average reduction after 24 and 48 h (%) (milk yield) [1]: 48% | Milk yield (kg) Last milking [1]: 27.8 kg | Average reduction after 24 and 48 h (%) [1]: 48% | Milk yield (kg) After 24 h [1]: 14.5 kg | Milk yield (kg) After 48 h [1]: 14.6 kg | Milk yield (kg) After 72 h [1]: 19.9 kg | Milk yield (kg) After 96 h [1]: 23.5 kg | average reduction after 24, 48 and 72 h (%) [1]: 41.3% | % reduction after 24 h [1]: 48% | % reduction after 48 h [1]: 48% | % reduction after 72 h [1]: 28% | % reduction after 96 h [1]: 15%

CCCS(=O)(=O)CCC [Di-n-propyl sulfone, di-n-propyl sulfone]
Milk yield (kg) After 24 h [1]: 13.7 kg | Milk yield (kg) After 48 h [1]: 13.8 kg | Milk yield (kg) After 72 h [1]: 15.2 kg | Milk yield (kg) After 96 h [1]: 18.7 kg
